Measurements from US4154730A, “Novel 17-spirosultines” (Roussel Uclaf, priority 1976, dated 1979).

Assays:
[1] = molecular target: T1, progesterone receptor (hormonal receptor of rabbit uterus cytosol) (Oryctolagus cuniculus, UniProt P06186); experiment: Progestomimetic activity by the method of hormonal receptors: displacement of tritiated product R in uterus cytosol; assay type: binding; conditions: tritiated 17,21-dimethyl-19-nor-Δ4,9-pregnadiene-3,20-dione, 0° C., 2 hours, progesterone = 100
T1 construct: The uterus was removed and homogenized in a buffered mixture; from tissue; host or cells: uterus cytosol (105,000 g supernatant) of impuberic rabbits primed with estradiol
T1 sequence (P06186 1-930): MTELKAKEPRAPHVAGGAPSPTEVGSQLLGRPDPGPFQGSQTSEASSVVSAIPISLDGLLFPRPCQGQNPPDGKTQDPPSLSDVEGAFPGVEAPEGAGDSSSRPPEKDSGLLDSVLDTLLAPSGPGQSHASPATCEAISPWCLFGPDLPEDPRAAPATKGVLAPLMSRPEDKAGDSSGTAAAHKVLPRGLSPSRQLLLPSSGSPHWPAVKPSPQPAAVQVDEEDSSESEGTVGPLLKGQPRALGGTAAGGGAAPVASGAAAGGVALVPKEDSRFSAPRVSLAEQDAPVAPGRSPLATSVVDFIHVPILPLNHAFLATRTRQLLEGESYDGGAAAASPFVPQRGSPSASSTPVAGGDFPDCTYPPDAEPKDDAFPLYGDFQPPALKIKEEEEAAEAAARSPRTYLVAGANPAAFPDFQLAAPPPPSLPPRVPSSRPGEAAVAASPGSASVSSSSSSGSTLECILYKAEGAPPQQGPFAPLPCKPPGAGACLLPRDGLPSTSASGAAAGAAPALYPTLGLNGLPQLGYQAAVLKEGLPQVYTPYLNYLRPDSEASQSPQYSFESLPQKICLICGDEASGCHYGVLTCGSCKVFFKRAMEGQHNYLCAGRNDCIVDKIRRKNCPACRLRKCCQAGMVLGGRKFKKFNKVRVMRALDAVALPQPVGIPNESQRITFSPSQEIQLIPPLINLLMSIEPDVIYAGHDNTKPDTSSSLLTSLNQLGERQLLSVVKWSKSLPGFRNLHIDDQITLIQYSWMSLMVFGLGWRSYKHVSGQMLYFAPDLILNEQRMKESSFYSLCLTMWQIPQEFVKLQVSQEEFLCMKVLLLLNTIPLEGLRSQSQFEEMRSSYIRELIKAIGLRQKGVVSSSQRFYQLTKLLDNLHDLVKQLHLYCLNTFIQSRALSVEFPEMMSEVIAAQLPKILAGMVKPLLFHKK
Method: Ster. Biochem., Vol. 6 (1975), p. 615-622 and Physiology and Genetics of Reproduction, part A (1975), p. 143-160]. Impuberic rabbits received percutaneously 25 γ of estradiol and 5 days later, the animals were killed. The uterus was removed and homogenized in a buffered mixture of 10 mM of tromethamine, 0.25 M of saccharose and sufficient hydrochloric acid for a pH of 7.4. The homogenate was centrifuged at 105,000 g for one hour and the liquid surnageant or cytosol was adjusted to obtain a dilution of 1:50 (weight of uterus to volume). […] B/T max. is the percentage of tritiated product R bound when no product was added and B/T min. is the percentage of tritiated product R bound when the maximum quantity of cold product R is added. The intersections of line I50 and the curves permit the determination of the CP and CX values. CP is the concentration of cold progesterone which inhibits by 50% the fixation of tritiated product R and CX is the concentration of test product which inhibits by 50% the fixation of tritiated product R. The relative affinity of the test product or RLA is determined by the formula [formula] and the results are reported in Table I.

[2] = tested on: activity of monoacetate of aldosterone (urinary sodium/potassium ratio); experiment: Antialdosteronic activity in surrenalectomized rats; assay type: in vivo, rat (Sprague Dawley); conditions: male surrenalectomized rats, test product 5 mg/kg subcutaneously, urine collected for 4 hours
Method: Male rats of the Sprague Dawley strain weighing about 180 g were subjected to surrenalectomy and at this moment, the rats received a drink of physiological serum. After about 2 days, the animals were fasted for 16 hours and then received a drink of an aqueous 5% glucose solution. The test products were administered subcutaneously at about 16 hours in the form of a solution or suspension in a 0.25% aqueous carboxymethyl cellulose solution containing Tween 80. One hour later, the animals received on the one hand intraperitoneally a hydrosaline surcharge at a dose of 5 ml/per rat of a 0.9% physiological serum and on the other hand subcutaneously 1 μg/kg of the monoacetate of aldosterone in a 2.5% alcoholic solution. The rats were placed in diuresis cages without food or drink for 4 hours and after this time, a forced urination was effected by pressure on the bladder. The volume of the obtained urine was adjusted to 50 ml and the amounts of sodium and potassium present was determined by an autoanalyzer. The results are expressed as a percentage of inhibition of the activity of 1 μg/kg of subcutaneously injected monoacetate of aldosterone by the ratio of sodium concentration to potassium concentration of the surrenalectomized rats.

| Structure (SMILES) | RLA (relative affinity of the test product, from CP and CX) [1] | percentage of inhibition of the activity of 1 μg/kg of subcutaneously injected monoacetate of aldosterone (sodium/potassium ratio) [2] [%] |
| --- | --- | --- |
| C[C@]12CCC3=C4CCC(=O)C=C4CC[C@H]3[C@@H]1CC[C@@]21CCS(=O)O1 (stereo partly drawn) [product A, B isomer of (17R) 2'-oxidospiro-[Δ^4,9-estradiene-17,5'-(1',2')-oxathiolane]-3-one] | 280 | 88 |
| C[C@]12C=CC3=C4CCC(=O)C=C4CC[C@H]3[C@@H]1CC[C@@]21CCS(=O)O1 (stereo partly drawn) [product B, B isomer of (17R) 2'-oxidospiro-[Δ^4,9,11-estratriene-17,5'-(1',2')-oxathiolane]-3-one] | 400 |  |
